Values joined by “and” are separate entries in the source; they are usually repeats but may differ in a detail not shown here. Equal entries are not always repeated. Toxic doses and inconclusive results are not listed.
Tested on: CD2F1 mice, L1210 leukemia ip, survival T/C
Test: NCI In Vivo Anticancer Drug Screen. Data for tumor model L1210 Leukemia (intraperitoneal) in CD2F1 (CDF1) mice
Conditions: endpoint: mean survival time, higher = longer survival
In short: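 Ratio T/C, where T is the treated-group value and C the vehicle-dosed control value, from mice implanted with a transplantable tumor.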

With `CN(C)/N=N/c1nc[nH]c1C(N)=O` the T/C (dose: 1.56 mg/kg/injection, schedule: Q03HX024 (ip), vehicle: steriod suspending solution) was 105 % of control, the T/C (dose: 1.56 mg/kg/injection, schedule: Q03HX024 (oral), vehicle: steriod suspending solution) was 105 % of control and the T/C (dose: 2.9 mg/kg/injection, schedule: Q01DX009 (ip), vehicle: Klucel (hydroxypropylcellulose) (HPC)) was 103 % of control. For the same molecule, the T/C (dose: 3.12 mg/kg/injection, schedule: Q03HX024 (ip), vehicle: steriod suspending solution) was 115 % of control, the T/C (dose: 3.12 mg/kg/injection, schedule: Q03HX024 (oral), vehicle: steriod suspending solution) was 107 % of control and the T/C (dose: 5.7 mg/kg/injection, schedule: Q01DX009 (ip), vehicle: Klucel (hydroxypropylcellulose) (HPC)) was 108 % of control. For the same molecule, the T/C (dose: 6.25 mg/kg/injection, schedule: Q03HX016 (ip), vehicle: steriod suspending solution) was 107 % of control, the T/C (dose: 6.25 mg/kg/injection, schedule: Q03HX016 (oral), vehicle: steriod suspending solution) was 110 % of control and the T/C (dose: 6.25 mg/kg/injection, schedule: Q03HX024 (oral), vehicle: steriod suspending solution) was 104 % of control. The T/C (dose: 11.4 mg/kg/injection, schedule: Q01DX009 (ip), vehicle: Klucel (hydroxypropylcellulose) (HPC)) was 104 % of control and 105 % of control, the T/C (dose: 12.5 mg/kg/injection, schedule: Q01DX001 (ip), vehicle: distilled water + Tween-80) was 104 % of control and 105 % of control and the T/C (dose: 12.5 mg/kg/injection, schedule: Q03HX016 (ip), vehicle: steriod suspending solution) was 109 % of control. For the same molecule, the T/C (dose: 12.5 mg/kg/injection, schedule: Q03HX016 (oral), vehicle: steriod suspending solution) was 109 % of control, the T/C (dose: 12.5 mg/kg/injection, schedule: Q03HX024 (ip), vehicle: steriod suspending solution) was 116 % of control and the T/C (dose: 22.7 mg/kg/injection, schedule: Q01DX009 (ip), vehicle: Klucel (hydroxypropylcellulose) (HPC)) was 115 % of control and 110 % of control. The T/C (dose: 25.0 mg/kg/injection, schedule: Q01DX001 (ip), vehicle: distilled water + Tween-80) was 103 % of control and 104 % of control, the T/C (dose: 25.0 mg/kg/injection, schedule: Q01DX009 (ip), vehicle: DMSO) was 110 % of control and the T/C (dose: 25.0 mg/kg/injection, schedule: Q01DX009 (ip), vehicle: saline) was 117 % of control. For the same molecule, the T/C (dose: 25.0 mg/kg/injection, schedule: Q01DX009 (ip), vehicle: water) was 113 % of control, the T/C (dose: 25.0 mg/kg/injection, schedule: Q03HX016 (oral), vehicle: steriod suspending solution) was 110 % of control and the T/C (dose: 25.0 mg/kg/injection, schedule: Q03HX024 (ip), vehicle: steriod suspending solution) was 118 % of control. The T/C (dose: 25.0 mg/kg/injection, schedule: Q03HX024 (oral), vehicle: steriod suspending solution) was 122 % of control, the T/C (dose: 25.0 mg/kg/injection, schedule: Q04DX003 (ip), vehicle: other) was 110 % of control and the T/C (dose: 25.0 mg/kg/injection, schedule: Q04DX003 (ip), vehicle: water) was 105 % of control. For the same molecule, the T/C (dose: 45.5 mg/kg/injection, schedule: Q01DX009 (ip), vehicle: Klucel (hydroxypropylcellulose) (HPC)) was 115 % of control and 123 % of control, the T/C (dose: 50.0 mg/kg/injection, schedule: Q01DX001 (ip), vehicle: distilled water + Tween-80) was 113 % of control and 106 % of control and the T/C (dose: 50.0 mg/kg/injection, schedule: Q01DX005 (ip), vehicle: other) was 117 % of control. For the same molecule, the T/C (dose: 50.0 mg/kg/injection, schedule: Q01DX009 (ip), vehicle: DMSO) was 120 % of control, the T/C (dose: 50.0 mg/kg/injection, schedule: Q01DX009 (ip), vehicle: saline) was 116 % of control and the T/C (dose: 50.0 mg/kg/injection, schedule: Q01DX009 (ip), vehicle: steriod suspending solution) was 115 % of control. For the same molecule, the T/C (dose: 50.0 mg/kg/injection, schedule: Q03DX003 (ip), vehicle: saline) was 110 % of control, the T/C (dose: 50.0 mg/kg/injection, schedule: Q03HX016 (ip), vehicle: steriod suspending solution) was 115 % of control and the T/C (dose: 50.0 mg/kg/injection, schedule: Q03HX016 (oral), vehicle: steriod suspending solution) was 105 % of control. The T/C (dose: 50.0 mg/kg/injection, schedule: Q04DX003 (ip), vehicle: Klucel (hydroxypropylcellulose) (HPC)) was 103 % of control, the T/C (dose: 50.0 mg/kg/injection, schedule: Q04DX003 (ip), vehicle: other) was 114 % of control and the T/C (dose: 50.0 mg/kg/injection, schedule: Q04DX003 (ip), vehicle: saline) was 105 % of control. For the same molecule, the T/C (dose: 50.0 mg/kg/injection, schedule: Q04DX003 (ip), vehicle: water) was 117 % of control, the T/C (dose: 60.0 mg/kg/injection, schedule: Q04DX003 (ip), vehicle: saline) was 88 % of control and 108 % of control and the T/C (dose: 67.0 mg/kg/injection, schedule: Q01DX009 (ip), vehicle: carboxymethylcellulose (CMC)) was 160 % of control. For the same molecule, the T/C (dose: 80.0 mg/kg/injection, schedule: Q04DX003 (ip), vehicle: saline) was 92 % of control and 106 % of control, the T/C (dose: 91.0 mg/kg/injection, schedule: Q01DX009 (ip), vehicle: Klucel (hydroxypropylcellulose) (HPC)) was 121 % of control and the T/C (dose: 97.0 mg/kg/injection, schedule: Q01DX009 (ip), vehicle: carboxymethylcellulose (CMC)) was 154 % of control. For the same molecule, the T/C (dose: 100.0 mg/kg/injection, schedule: Q01DX001 (ip), vehicle: distilled water + Tween-80) was 114 % of control and 117 % of control and the T/C (dose: 100.0 mg/kg/injection, schedule: Q01DX009 (ip), vehicle: carboxymethylcellulose (CMC)) was 160 % of control.

Reference: PubChem BioAssay AID256 (DTP/NCI, 2004)
